The values below come from PMC4997874 (Antimicrobial Agents and Chemotherapy, 2016).

Structures are written as SMILES. “And” between values parts separate entries of the source, which are not always exact repeats. Equal entries are not always repeated. Structures can show the parent of a compound that is named as a salt. Marks after values point to notes of the source that are not given here. Where only a bound is given, the exact number is not on record here.

One series in a line: in vitro. Conditions: sheep; for viability at 1 µM: % cell viability.
Series [1] concerns PrP^Sc accumulation in persistently infected hTERT-ovine microglia. In kind it is cell-based. Conditions: for EC50: read-out: TC-EC50 (50% tissue culture effective concentration).
Series [2] has as its system PrP^Sc-positive hTERT-ovine microglia.
For series [3] the test system is unchanged. In words: cells. The following applies: for activity at 1 µM: Ovis aries, Microglia, 96 h, read-out: % BrdU incorporation. The series is classed as cell-based.
Series [4] has the same test system. The series is described as follows: cells. The series is classed as cell-based. Conditions: Ovis aries, 96 h, read-out: % cell count.
Series [5] deals with PrP^Sc in scrapie-positive sheep brain homogenate (Ovis aries, UniProt P23907). The series is classed as biochemical.
Series [6] relates to total PrP^C in PrP^Sc-negative hTERT-ovine microglia. In kind it is cell-based.
Series [7] concerns PrP^Sc accumulation in scrapie-infected primary ovine microglia. The following applies: cited from earlier work.
Series [8] concerns PRNP transcripts in PrP^Sc-negative hTERT-ovine microglia. In kind it is cell-based.

PrP^Sc in scrapie-positive sheep brain homogenate, sequence (P23907 25-233 limits assumed): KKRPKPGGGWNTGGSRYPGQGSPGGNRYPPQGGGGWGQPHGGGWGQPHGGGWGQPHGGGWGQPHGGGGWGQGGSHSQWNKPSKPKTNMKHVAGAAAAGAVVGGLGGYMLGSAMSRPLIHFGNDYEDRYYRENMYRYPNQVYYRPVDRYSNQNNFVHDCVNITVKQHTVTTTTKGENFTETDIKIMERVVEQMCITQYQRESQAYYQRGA

Regarding `N=C(N)c1ccc(-c2ccc(-c3ccc(C(=N)N)cc3)o2)cc1` [DB075, furamidine], the viability at 1 µM in “in vitro” came out at 149%. For the same molecule, the “% reduction in PrP^Sc” value in series [1] was 27%.
In the case of `Cn1c(-c2nc3ccc(C(=N)N)cc3[nH]2)ccc1-c1nc2ccc(C(=N)N)cc2[nH]1` [DB191], the “Effect on cell viability in dilution series” value in series [2] was “failed to demonstrate any effect on cell viability”. In “in vitro”, the CC50 is over 3160 nM and the viability at 1 µM came to 188%. In addition, in [1], the “% reduction in PrP^Sc” value is on record as 65^d %, the “Selectivity index (CC50/TC-EC50)” value is recorded as >6.4^e and the EC50 turned out to be 490 ± 140 nM. Moreover, in series [3], the activity at 1 µM came out at 74%. In addition, in series [4], the viability at 1 µM was found to be 88%.
Turning to `N=C(N)c1ccc2nc(-c3ccc(-c4nc5ccc(C(=N)N)cc5[nH]4)[nH]3)[nH]c2c1` [DB192], in “in vitro”, the CC50 was over 3160 nM and the viability at 1 µM was determined as 150%. Also, in series [1], the “% reduction in PrP^Sc” value is 61^d %, the “Selectivity index (CC50/TC-EC50)” value is >3.5^e and the EC50 was determined as 910 ± 80 nM. For the same molecule, in series [3], the “Effect on cell proliferation (BrdU) over the 4-day treatment period” value (shortened to “Effect … over the 4-day treatment period”) is recorded as “significant effect on cell proliferation was not detected” and the activity at 1 µM was found to be 101%. The viability at 1 µM in [4] came to 98%.
In the case of `N=C(N)c1ccc2nc(-c3cccc(-c4nc5ccc(C(=N)N)cc5[nH]4)n3)[nH]c2c1` [DB205], the viability at 1 µM in “in vitro” is 127%. The “% reduction in PrP^Sc” value in series [1] is 52^d %.
Take `N=C(N)c1ccc(-c2ccc(-c3nc4ccc(C(=N)N)cc4[nH]3)o2)cc1` [DB293]: the viability at 1 µM in the series “in vitro” worked out at 135%. In series [1], the “% reduction in PrP^Sc” value is recorded as 51^f %.
With `c1cc(-c2ccc(-c3nc4ccc(C5=NCCN5)cc4[nH]3)o2)ccc1C1=NCCN1` [DB302], the viability at 1 µM in “in vitro” came to 205%. Moreover, in [1], the “% reduction in PrP^Sc” value is recorded as 19%.
The matching figures for `N=C(N)c1ccc2nc(-c3ccc(-c4ccc([N+](=O)[O-])cc4)o3)[nH]c2c1` [DB472]: 120% and 11%.
On to `N=C(N)c1ccc(-c2ccc(-c3nc4ccccc4[nH]3)o2)cc1` [DB771], for which, in series [5], the “Stabilization of PrP^Sc against PK digestion” value (“Stabilization of PrP^Sc” below) was “significant stabilization of PrP^Sc was not detected”. Besides, the viability at 1 µM in the series “in vitro” is 98%. In addition, the “% reduction in PrP^Sc” value in series [1] came to 27%.
For the molecule `c1ccc2[nH]c(-c3ccc(-c4ccc(C5=NCCN5)cc4)o3)nc2c1` [DB772, 2-(2-benzimidazolyl)-5-[4-(2-imidazolino)phenyl] furan dihydrochloride], the “Effect on PrP^C expression (total PrP)” value in [6] is listed as “significant effect on PrP^C expression was not detected”. The “Inhibition of PrP^Sc accumulation” value in series [7] is “nearly complete inhibition”. Further, in the series “in vitro”, the CC50 worked out at 3800 ± 900 nM and the viability at 1 µM is 96%. Further, the “Effect on PrP^C expression (PRNP transcripts)” value in series [8] is recorded as “significant effect on PrP^C expression was not detected”. Moreover, the EC50 in series [1] came out at 800 ± 90 nM. In series [3], the “Effect … over the 4-day treatment period” value is reported as “significant effect on cell proliferation was not detected” and the activity at 1 µM stood at 78%. In addition, the viability at 1 µM in [4] amounted to 89%.
For `N=C(N)c1ccc(-c2ccc(-c3nc4ccc(C(=N)N)cc4[nH]3)s2)cc1` [DB818A], the “Stabilization of PrP^Sc” value in series [5] is “significant stabilization of PrP^Sc was not detected”. In addition, in “in vitro”, the CC50 is over 3160 nM and the viability at 1 µM was 170%. Moreover, in [1], the “% reduction in PrP^Sc” value is on record as 74^f % and the EC50 came to 460 ± 80 nM. The activity at 1 µM in series [3] came out at 76%. In [4], the viability at 1 µM was found to be 85%.
With `Cc1cc(C(=N)N)ccc1-c1ccc(-c2nc3ccc(C(=N)N)cc3[nH]2)o1` [DB850], the viability at 1 µM in the series “in vitro” is 154%. Besides, in [1], the “% reduction in PrP^Sc” value is on record as 11%.
For `Nc1cccc(-c2ccc(-c3nc4ccc(C5=NCCN5)cc4[nH]3)o2)c1` [DB900], the viability at 1 µM in “in vitro” was determined as 125%. For the same molecule, in series [1], the “% reduction in PrP^Sc” value is listed as −5%.
On to `c1ccc2[nH]c(-c3ccc(-c4ccc(C5=NCCN5)cc4)s3)nc2c1` [DB932A], for which the “Stabilization of PrP^Sc” value in series [5] is reported as “significant stabilization of PrP^Sc was not detected”. In “in vitro”, the CC50 was 2500 ± 300 nM and the viability at 1 µM turned out to be 81%. In series [1], the “% reduction in PrP^Sc” value is 70^f % and the EC50 stood at 390 ± 110 nM. In [3], the activity at 1 µM came out at 66%. Moreover, in series [4], the viability at 1 µM was 92%.
Regarding `Cn1c(-c2ccc(-c3ccc(C4=NCCN4)cc3)o2)nc2ccccc21` [DB948], in the series “in vitro”, the CC50 worked out at 1500 ± 500 nM and the viability at 1 µM turned out to be 60%. Further, in series [1], the “% reduction in PrP^Sc” value was 83% and 83^f %; the EC50 is 430 ± 150 nM. Besides, the viability at 1 µM in series [4] was 68%.
As for `c1ccc(-c2ccc(-c3nc4ccc(C5=NCCN5)cc4[nH]3)s2)cc1` [DB953], the viability at 1 µM in “in vitro” was found to be 134%. In [1], the “% reduction in PrP^Sc” value is 53^f %.
The matching figures for `N=C(N)c1ccc2nc(-c3ccc(-c4ccc(C(=N)N)c(F)c4)o3)[nH]c2c1` [DB989]: 126% and 26%.
For `N=C(N)c1ccc2nc(-c3ccc(-c4ccc(C(=N)N)c(O)c4)o3)[nH]c2c1` [DB992], in the series “in vitro”, the viability at 1 µM is 150%. Besides, in [1], the “% reduction in PrP^Sc” value came to 30%.
For `N=C(N)c1ccc2nc(-c3ccc(-c4nc5ccc(C(=N)N)cc5[nH]4)s3)[nH]c2c1` [DB1033], the “Effect on cell viability in dilution series” value in [2] is “failed to demonstrate any effect on cell viability”. For the same molecule, in “in vitro”, the CC50 was over 3160 nM and the viability at 1 µM is 91%. Also, in [1], the “% reduction in PrP^Sc” value was 81% and 81^d %; the “Selectivity index (CC50/TC-EC50)” value is >5.4^e; the EC50 was determined as 580 ± 140 nM. Besides, the activity at 1 µM in series [3] was 68%. Further, the viability at 1 µM in series [4] is 96%.
On to `N=C(N)c1ccc(-c2ccc(-c3ccc(-c4nc5ccc(C(=N)N)cc5[nH]4)cc3)o2)nc1` [DB1264], for which, in the series “in vitro”, the CC50 is over 3160 nM and the viability at 1 µM amounted to 138%. For the same molecule, in series [1], the “% reduction in PrP^Sc” value was 68^f %, the “Selectivity index (CC50/TC-EC50)” value was >8.1^e and the EC50 was 390 ± 60 nM. In series [3], the “Effect … over the 4-day treatment period” value is given as “significant effect on cell proliferation was not detected” and the activity at 1 µM was found to be 77%. The viability at 1 µM in series [4] was 89%.
`N=C(N)c1ccc2nc(-c3ccc(-c4ccc(-c5ccccc5)cc4)o3)[nH]c2c1` [DB1275]: in “in vitro”, the viability at 1 µM stood at 115%. Moreover, the “% reduction in PrP^Sc” value in series [1] is given as 49^f %.
With `N=C(N)c1ccc2nc(-c3ccc(-c4nc5ccc(C(=N)N)cc5[nH]4)[se]3)[nH]c2c1` [DB1310], in the series “in vitro”, the CC50 was over 3160 nM and the viability at 1 µM is 110%. In [1], the “% reduction in PrP^Sc” value was 77% and 77^d %; the “Selectivity index (CC50/TC-EC50)” value is on record as >7.7^e; the EC50 is 410 ± 80 nM. In addition, in series [3], the “Effect … over the 4-day treatment period” value is given as “significant effect on cell proliferation was not detected” and the activity at 1 µM came out at 91%. The viability at 1 µM in series [4] amounted to 92%.
Regarding `N=C(N)c1ccc(-c2ccc(-c3cnc4ccc(C(=N)N)cc4c3)s2)cc1` [DB1504], in “in vitro”, the CC50 is over 3160 nM and the viability at 1 µM was 156%. In [1], the “Selectivity index (CC50/TC-EC50)” value was >8.1^e and the EC50 stood at 390 ± 110 nM. In addition, in [3], the “Effect … over the 4-day treatment period” value was “significant effect on cell proliferation was not detected” and the activity at 1 µM worked out at 100%. For the same molecule, the viability at 1 µM in series [4] is 102%.
For `N=C(N)c1ccc2nc(-c3ccc(-c4ccc(C(N)=O)cc4)o3)[nH]c2c1` [DB1932], the viability at 1 µM in “in vitro” was 120%. Besides, the “% reduction in PrP^Sc” value in series [1] turned out to be 24%.
Take `N=C(N)c1ccc2nc(-c3ccc(-c4ccc(C(N)=O)cc4)s3)[nH]c2c1` [DB1933]: in the series “in vitro”, the viability at 1 µM came to 127%. In addition, in series [1], the “% reduction in PrP^Sc” value was 39%.
In the case of `N=C(N)c1ccc2nc(-c3ccc(-c4ccc(-c5nc6ccc(C(=N)N)cc6[nH]5)o4)cc3)[nH]c2c1` [DB2137], the viability at 1 µM in the series “in vitro” was found to be 102%. For the same molecule, the “% reduction in PrP^Sc” value in series [1] is given as 31%.
Regarding `N=C(N)c1ccc2nc(-c3ccc(-c4cccc(-c5ccc(-c6nc7ccc(C(=N)N)cc7[nH]6)o5)c4)o3)[nH]c2c1` [DB2147], the viability at 1 µM in the series “in vitro” turned out to be 90%. The “% reduction in PrP^Sc” value in series [1] came to 37%.
As to `N=C(N)c1ccc(-c2ccc(-c3ccc(-c4nc5ccc(C(=N)N)cc5[nH]4)cc3)s2)cc1` [DB2214], in the series “in vitro”, the CC50 is over 3160 nM and the viability at 1 µM worked out at 180%. Further, in series [1], the “% reduction in PrP^Sc” value is 69^f % and the EC50 turned out to be 260 ± 140 nM. Besides, the activity at 1 µM in [3] was determined as 68%. The viability at 1 µM in series [4] was 84%.
For the molecule `N=C(N)c1ccc2nc(-c3ccc(-c4ccc(OCc5cn(CCc6cccc7ccccc67)nn5)cc4)s3)[nH]c2c1` [DB2228], in the series “in vitro”, the CC50 is over 3160 nM and the viability at 1 µM was found to be 120%. In addition, in series [1], the “% reduction in PrP^Sc” value was 63^f %, the “Selectivity index (CC50/TC-EC50)” value is reported as >15.8^e and the EC50 stood at 200 ± 80 nM. Besides, in [3], the “Effect … over the 4-day treatment period” value is “significant effect on cell proliferation was not detected” and the activity at 1 µM was determined as 92%. Besides, the viability at 1 µM in series [4] worked out at 82%.
`COc1ccc(-c2ccc(-c3nc4ccc(C(=N)N)cc4[nH]3)s2)cc1` [DB2263]: the viability at 1 µM in “in vitro” is 108%. In addition, in series [1], the “% reduction in PrP^Sc” value is 46^f %.
For the molecule `N=C(N)c1ccc2nc(-c3ccc(NC(=O)Nc4ccc(-c5nc6ccc(C(=N)N)cc6[nH]5)cc4)cc3)[nH]c2c1` [DB2265], in the series “in vitro”, the viability at 1 µM is 105%. Moreover, the “% reduction in PrP^Sc” value in [1] is reported as 28%.
